pIC50: −log10 of the molar value.
Legend:
HAC15 cells = test: Cell number (DNA) of HAC15 cells; format: cell-based, Human; conditions: HAC15, 1 or 3 days, with or without ACTH
Protocol: Human adrenocortical carcinoma HAC15 and mouse corticotroph AtT20 cells were used, purchased as a kind gift by Dr. W. Rainey, and obtained from Dr. J. Tooze (European Organization for Molecular Biology), respectively. Both cell lines were cultured in 75 cm^2 flasks at 37° C. in a humidified incubator (Greiner Bio-One, Alphen a/d Rijn, the Netherlands) at 5% CO2. Dulbecco's Modified Eagle Medium F12 containing 5% fetal calf serum was used for HAC15, whereas AtT20 cells were cultured in Dulbecco's minimal essential medium (DMEM) supplemented with 10% fetal calf serum. Both mediums were supplemented with L-glutamine (2 mmol/L) and penicillin (10^5 U/L). Short tandem repeat (str) profiling using a Powerplex Kit (Promega, Leiden, the Netherlands) of HAC15 and AtT20 gave results consistent with the ATCC database, confirming the identity of both cell lines. Medium and supplements were obtained from Invitrogen, Breda, the Netherlands. Once a week, cells were harvested with trypsin (0.05%)-EDTA (0.53 mM) and resuspended in culture medium. […]
As a measure of cell number, DNA concentrations were determined using the bisbenzimide fluorescent dye (Hoechst 33258, Sigma Aldrich), as previously described.

[1] = test system: CPA primary culture no. 2; test: Steroid profile by LC/MS-MS in CPA primary culture no. 2; format: cell-based, human; conditions: for 11-DOC absolute change vs control / 11-DOC percentage change vs control / 17-OHP absolute change vs control / 17-OHP percentage change vs control / Androstenedione absolute change vs control / Androstenedione percentage change vs control / Corticosterone absolute change vs control / Corticosterone percentage change vs control / Cortisol absolute change vs control / Cortisol percentage change vs control / DHEA absolute change vs control / DHEAS absolute change vs control / Prog absolute change vs control / Prog percentage change vs control / Testosterone absolute change vs control / Testosterone percentage change vs control: CPA no. 2, Basal, 3 days
Protocol: (§1) To obtain primary cultures, adrenal specimens (adrenocortical adenomas, adrenal hyperplasias and adrenocortical carcinomas) were collected after adrenalectomy at the department of Surgery, Erasmus University Medical Center, Rotterdam, the Netherlands, between April 2016 and May 2018. The study was conducted under guidelines that have been approved by the Medical Ethics Committee of the Erasmus Medical Center and informed consent was obtained from all patients. Immediately after surgery, specimens were minced into small pieces of 2-3 mm^3, washed in culture medium and centrifuged for 5 minutes at 600 g. The tissue was stored overnight in culture medium at 4° C., where after the tissue was centrifuged again and the supernatant was removed. Fragments were dissociated using 10-25 ml collagenase type 1 (2 mg/ml: Sigma-Aldrich), followed by incubation at 37° C. for up to two hours. Ficoll (GE healthcare) density gradient separation was used once or twice as required in order to separate contaminating red blood cells from the tumor cells. Cell viability and cell amount were counted by trypan blue exclusion. Dissociated cells were plated at a density of 10^5 cells per well. ACTH-secreting corticotroph pituitary adenoma tissue from patients with Cushing's disease (n=2) was available after transsphenoidal surgery. Single-cell suspensions of the pituitary adenoma tissues were prepared as previously described in detail.
Primary culture conditions for primary cultures were similar as described in the section ‘cell culture and compounds’, but with small adjustments: ACTH was used at a concentration of 85 pM (250 pg/mL), treatment was started 3-4 days after plating of the cells and cells were incubated for 3 days, and; for pituitary primary cultures, levoketoconazole and racemic ketoconazole were only tested at a concentration of 1 μM. Owing to a limited number of cells obtained from the specimens, not all experiments were carried out in every primary culture.
Cortisol concentrations were measured in the supernatant using a chemiluminescence immunoassay system (Immulite 2000XPi; Siemens DPC Inc., Los Angeles, Calif., USA). In addition, we carried out multi-steroid analysis by liquid chromatography/mass spectrometry (LC/MS-MS) to accurately quantify androstenedione, corticosterone, cortisol, 11-deoxycortisol, DHEA, DHEAS, progesterone, 17-hydroxyprogesterone, and testosterone. Concentrations that were tested on the LC/MS-MS were closest to 50% inhibition or maximal inhibition of cortisol as determined by the immunoassay. Steroids were quantified with respect to a calibration series, with internal standards. Steroids were quantified on a Xevo TQS LC-MS/MS (Waters Chromatography).
Statistical analysis was performed using Graphpad Prism 6.0 (Graphpad Software, San Diego, CA). Non-linear regression curve fitting program was used to calculate the half maximal inhibitory concentrations (IC50) on cortisol production. Effects of both compounds on the steroid profile were measured as absolute change compared to control and compared using the Student's t-test. When assessing differences between effects of both compounds, the percentage change was evaluated and compared in order to correct for differences in the vehicle treated control cells. Values of P<0.05 were considered statistically significant and data are presented as mean SEM.

[2] = test system: ACTH independent hyperplasia cultures; test: Cortisol production in primary ACTH independent hyperplasia cultures; format: cell-based, human; conditions: 3 days; for IC50 inhibition of cortisol production: ACTH independent hyperplasia no. 1, basal condition
Protocol: as §1, with “ACTH-secreting corticotroph pituitary adenoma tissue from patients with Cushing's disease (n=2) was available after transsphenoidal surgery. Single-cell suspensions of the pituitary adenoma tissues were prepared as previously described in detail.” left out
Cortisol concentrations were measured in the supernatant using a chemiluminescence immunoassay system (Immulite 2000XPi; Siemens DPC Inc., Los Angeles, Calif., USA). In addition, we carried out multi-steroid analysis by liquid chromatography/mass spectrometry (LC/MS-MS) to accurately quantify androstenedione, corticosterone, cortisol, 11-deoxycortisol, DHEA, DHEAS, progesterone, 17-hydroxyprogesterone, and testosterone. […] Steroids were quantified with respect to a calibration series, with internal standards. Steroids were quantified on a Xevo TQS LC-MS/MS (Waters Chromatography).
Statistical analysis was performed using Graphpad Prism 6.0 (Graphpad Software, San Diego, CA). […] Effects of both compounds on the steroid profile were measured as absolute change compared to control and compared using the Student's t-test. […]

`CC(=O)N1CCN(c2ccc(OCC3COC(Cn4ccnc4)(c4ccc(Cl)cc4Cl)O3)cc2)CC1` (racemic) [racemic ketoconazole, Ketoconazole] was tested, and the “effects on cell number” value (HAC15 cells) was “no effects”, the “11-DOC absolute change vs control” value ([1]; 0.1 μM) was “+6.400 nmol/l” and the “11-DOC percentage change vs control” value ([1]; 0.1 μM) was “(+2.4%)”. The “17-OHP absolute change vs control” value ([1]; 0.1 μM) was -0.4750 nmol/L, the “17-OHP percentage change vs control” value ([1]; 0.1 μM) was “(−2.4%)” and the “Androstenedione absolute change vs control” value ([1]; 0.1 μM) was -32.85 nmol/L. For the same molecule, the “Androstenedione percentage change vs control” value ([1]; 0.1 μM) was −66%, the “Corticosterone absolute change vs control” value ([1]; 0.1 μM) was “+175.8 nmol/l” and the “Corticosterone percentage change vs control” value ([1]; 0.1 μM) was “+213%”. The “Cortisol absolute change vs control” value ([1]; 0.1 μM) was -92.95 nmol/L, the “Cortisol percentage change vs control” value ([1]; 0.1 μM) was −14% and the “DHEA absolute change vs control” value ([1]; 0.1 μM) was “<LLQ”. For the same molecule, the “DHEAS absolute change vs control” value ([1]; 0.1 μM) was “<LLQ”, the “Prog absolute change vs control” value ([1]; 0.1 μM) was “+0.5167 nmol/l” and the “Prog percentage change vs control” value ([1]; 0.1 μM) was “(+36%)”. For the same molecule, the “Testosterone absolute change vs control” value ([1]; 0.1 μM) was -0.3250 nmol/L, the “Testosterone percentage change vs control” value ([1]; 0.1 μM) was “(−57%)” and the “Androstenedione percentage change vs control” value ([1]; 0.1 μM, listed as RK) was “(−66%*)”. The “Corticosterone percentage change vs control” value ([1]; 0.1 μM, listed as RK) was “(+213%****)”, the “Cortisol percentage change vs control” value ([1]; 0.1 μM, listed as RK) was “(−14%**)” and the “11-DOC absolute change vs control” value ([1]; 0.5 μM) was -37.70 nmol/L. The “11-DOC percentage change vs control” value ([1]; 0.5 μM) was “(−14%***)”, the “17-OHP absolute change vs control” value ([1]; 0.5 μM) was “+11.45 ± 1 nmol/l” and the “17-OHP percentage change vs control” value ([1]; 0.5 μM) was “(+58%*)”. The “Androstenedione absolute change vs control” value ([1]; 0.5 μM) was -47.28 nmol/L, the “Androstenedione percentage change vs control” value ([1]; 0.5 μM) was “(−95%)” and the “Corticosterone absolute change vs control” value ([1]; 0.5 μM) was “+143.8 nmol/l”. For the same molecule, the “Corticosterone percentage change vs control” value ([1]; 0.5 μM) was “(+174%*)”, the “Cortisol absolute change vs control” value ([1]; 0.5 μM) was -562.7 nmol/L and the “Cortisol percentage change vs control” value ([1]; 0.5 μM) was “(−87%)”. The “DHEA absolute change vs control” value ([1]; 0.5 μM) was “<LLQ”, the “DHEAS absolute change vs control” value ([1]; 0.5 μM) was “<LLQ” and the “Prog absolute change vs control” value ([1]; 0.5 μM) was “+22.47 nmol/l”. For the same molecule, the “Prog percentage change vs control” value ([1]; 0.5 μM) was “(+1567%)”, the “Testosterone absolute change vs control” value ([1]; 0.5 μM) was -0.4475 nmol/L and the “Testosterone percentage change vs control” value ([1]; 0.5 μM) was “(−79%)”. For the same molecule, the “total change of steroids: increase” value ([1]; CPA no. 2, basal, 0.1 μM) was 55.6 nmol/L, the “IC50 inhibition of cortisol production” value [2] was “Ambiguous” and the pIC50 ([2]; Homo sapiens, 72 h, ACTH independent hyperplasia no. 2, ACTH (85 μM) stimulated condition, read-out: IC50 inhibition of cortisol production) was 5.86.
With `CC(=O)N1CCN(c2ccc(OC[C@@H]3CO[C@@](Cn4ccnc4)(c4ccc(Cl)cc4Cl)O3)cc2)CC1` (relative stereo) [levoketoconazole, 2S,4R cis-1-acetyl-4-[4-[[2-(2,4-dichlorophenyl)-2-(1H-imidazol-1-ylmethyl)-1,3-dioxolan-4-yl]methoxyl]phenyl]piperazine] the “effects on cell number” value (HAC15 cells) was “no effects”, the “11-DOC absolute change vs control” value ([1]; 0.1 μM) was “+14.80 nmol/l” and the “11-DOC percentage change vs control” value ([1]; 0.1 μM) was “(+5.4%)”. The “17-OHP absolute change vs control” value ([1]; 0.1 μM) was “+5.125 nmol/l”, the “17-OHP percentage change vs control” value ([1]; 0.1 μM) was “(+26%)” and the “Androstenedione absolute change vs control” value ([1]; 0.1 μM) was -36.68 nmol/L. For the same molecule, the “Androstenedione percentage change vs control” value ([1]; 0.1 μM) was −79%, the “Corticosterone absolute change vs control” value ([1]; 0.1 μM) was “+49.50 nmol/l” and the “Corticosterone percentage change vs control” value ([1]; 0.1 μM) was “+54%”. For the same molecule, the “Cortisol absolute change vs control” value ([1]; 0.1 μM) was -264.2 nmol/L, the “Cortisol percentage change vs control” value ([1]; 0.1 μM) was −40% and the “DHEA absolute change vs control” value ([1]; 0.1 μM) was “<LLQ”. The “DHEAS absolute change vs control” value ([1]; 0.1 μM) was “<LLQ”, the “Prog absolute change vs control” value ([1]; 0.1 μM) was “+2.350 nmol/l” and the “Prog percentage change vs control” value ([1]; 0.1 μM) was “(+138%)”. For the same molecule, the “Testosterone absolute change vs control” value ([1]; 0.1 μM) was -0.3750 nmol/L, the “Testosterone percentage change vs control” value ([1]; 0.1 μM) was −66% and the “Androstenedione absolute change vs control” value ([1]; 0.1 μM, listed as LK) was -36.68 nmol/L. For the same molecule, the “Androstenedione percentage change vs control” value ([1]; 0.1 μM, listed as LK) was “(−79%)”, the “Corticosterone percentage change vs control” value ([1]; 0.1 μM, listed as LK) was “(+54%)” and the “Cortisol absolute change vs control” value ([1]; 0.1 μM, listed as LK) was -264.2 nmol/L. For the same molecule, the “Cortisol percentage change vs control” value ([1]; 0.1 μM, listed as LK) was “(−40%)”, the “Testosterone absolute change vs control” value ([1]; 0.1 μM, listed as LK) was -0.3750 nmol/L and the “Testosterone percentage change vs control” value ([1]; 0.1 μM, listed as LK) was “(−66%)”. The “11-DOC absolute change vs control” value ([1]; 0.5 μM) was -98.25 nmol/L, the “11-DOC percentage change vs control” value ([1]; 0.5 μM) was “(−36%)” and the “17-OHP absolute change vs control” value ([1]; 0.5 μM) was “+21.28 nmol/l”. The “17-OHP percentage change vs control” value ([1]; 0.5 μM) was “(+107%)”, the “Androstenedione absolute change vs control” value ([1]; 0.5 μM) was -45.18 nmol/L and the “Androstenedione percentage change vs control” value ([1]; 0.5 μM) was “(−97%)”. For the same molecule, the “Corticosterone absolute change vs control” value ([1]; 0.5 μM) was “+218.0 nmol/l”, the “Corticosterone percentage change vs control” value ([1]; 0.5 μM) was “(+239%)” and the “Cortisol absolute change vs control” value ([1]; 0.5 μM) was -633.3 nmol/L. For the same molecule, the “Cortisol percentage change vs control” value ([1]; 0.5 μM) was “(−96%)”, the “DHEA absolute change vs control” value ([1]; 0.5 μM) was “<LLQ” and the “DHEAS absolute change vs control” value ([1]; 0.5 μM) was “<LLQ”. For the same molecule, the “Prog absolute change vs control” value ([1]; 0.5 μM) was “+39.95 nmol/l”, the “Prog percentage change vs control” value ([1]; 0.5 μM) was “(+2350%)” and the “Testosterone absolute change vs control” value ([1]; 0.5 μM) was -0.4725 nmol/L. For the same molecule, the “Testosterone percentage change vs control” value ([1]; 0.5 μM) was “(−83%)”, the “total change of steroids: decrease” value ([1]; CPA no. 2, basal, 0.1 μM) was 229.5 nmol/L and the “IC50 inhibition of cortisol production” value [2] was “Ambiguous”.

From patent US12201632B2, “Levoketoconazole for treatment of congenital adrenal hyperplasia and primary aldosteronism” (Strongbridge Dublin Limited, priority 2018, dated 2025)
